Results taken from patent US20250203808A1, “REFRIGERANTS FOR AND METHODS OF COOLING ELECTRONICS” (HONEYWELL INTERNATIONAL INC., priority 2023, published 2025).
Where two headings read alike, the source gives them in different places.

Experiments:
[1] = Boiling point determination; type: physicochemical; details: for boiling point: Table 1, values understood as 'about'; for BP: Table E1
Experimental: (§1) The boiling point (“BP”) and dielectric constant (“Dk”) of HFO-1438ez(E) and HFO-1438ez(Z) were determined and the results are reported below in Table E1. Static dielectric constant for new molecules was calculated using Kirkwood theory as described in papers by Wang and Anderko [P. Wang and A. Anderko, Computation of dielectric constants of solvent mixtures and electrolyte solutions, Fluid Phase Equilibria 186 (2001) 103-122] and Harvey and Lemmon [A. H. Harvey and E. W. Lemmon, Method for estimating dielectric constant of natural gas mixtures, International Journal of Thermophysics 26 (2005) 31-46]. The dielectric property of each of HFO-1438ez(E) and HFO-1438ez(Z) was determined using the Agilent 85070 Dielectric Probe. All measurements were made at ambient pressure and room temperature (approximately 23° C.). Prior to making measurements, the system was calibrated from 1 GHz to 20 GHz with an open circuit, a short circuit, and DI water (@22.4° C.) standard. The result of the calibration is shown in the Table E1 below for DI H2O, and is consistent with DI water at 22.4° C. The accuracy of the probe is given as: Dielectric constant, er′=er′+/−0.05|er*| with er″=er″+/−0.05|er*| and (loss=er″/er′).

[2] = Dielectric constant and dissipation factor, Agilent 85070 Dielectric Probe, 20 GHz; type: physicochemical; details: values 'about'; for Dielectric Constant (20 GHz): room temperature
Experimental: “Dielectric Constant” means the dielectric constant as measured in accordance with ASTM D150-11 at room temperature at 20 giga hertz (GHz).
as §1

[3] = background, commercial 3M fluids; cited from earlier work
[4] = background, commercial 3M fluids; cited from earlier work; remark: listed apart in the source

| Structure (SMILES) | boiling point [1] | BP [1] | Dielectric Constant (20 GHz) [2] | boiling point [3] | dielectric constant [4] | Dissipation Factor (20 GHz) [2] |
| --- | --- | --- | --- | --- | --- | --- |
| F/C=C\C(F)(C(F)(F)F)C(F)(F)F [HFO-1438ezy(Z), (Z)-1,3,4,4,4-pentafluoro-(3-trifluoromethyl)-but-1-ene] | 55 °C | 55 °C | 7.8 |  |  |  |
| COC(F)(F)C(F)(F)C(F)(F)F [HFE7000, 1-methoxyheptafluoropropane (C3F7OCH3)] |  |  |  | 34 °C | 7.4 |  |
| F/C=C/C(F)(C(F)(F)F)C(F)(F)F [HFO-1438ezy(E), (E)-1,3,4,4,4-pentafluoro-(3-trifluoromethyl)-but-1-ene] | 28 °C | 30 °C | 2.43 |  |  | 0.09 |
| FC(F)(F)N1C(F)(F)C(F)(F)OC(F)(F)C1(F)F [FC-3284] |  |  |  | 50 °C |  |  |
